Assay results taken from patent US6967196B1, “Sulfonamide compounds and uses thereof” (Bristol-Myers Squibb Company, priority 1999, dated 2005).
Where a name gives a salt, the structure may show the parent alone. Read-outs that look alike come from different tables or passages of the source.

Test system: amyloid β production in transfected H4 (human neuroglioma) cells stably expressing APP constructs
Test: In vitro cell-based assay of inhibitors of amyloid β production (ELISA)
Conditions: amyloid β in medium by ELISA
Procedure, shortened: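 Transfected H4 cells stably expressing wild-type or variant APP were exposed to compounds (initial screen 10-100 μM) for about 16 h. Secreted Aβ in the medium was quantified by sandwich ELISA (C-terminal-specific monoclonal capture, N-terminal-specific polyclonal detection) against an Aβ standard curve; dose-response runs followed for actives.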

[1] = transfected H4 cells stably expressing APP, approximately 16 hours incubation, Table B, read-out: ACTIVITY (IC50, inhibition of amyloid β production)
[2] = transfected H4 cells stably expressing APP constructs, approximately 16 hours incubation, read-out: ACTIVITY (IC50, inhibition of amyloid β production)
[3] = Homo sapiens, 16 h, transfected H4 cells stably expressing APP, approximately 16 hours incubation, read-out: ACTIVITY (IC50, inhibition of amyloid β production)
[4] = Homo sapiens, 16 h, transfected H4 cells stably expressing APP, approximately 16 hours incubation, Table B, read-out: ACTIVITY (IC50, inhibition of amyloid β production)
[5] = Homo sapiens, 16 h, transfected H4 cells stably expressing APP constructs, approximately 16 hours incubation, read-out: ACTIVITY (IC50, inhibition of amyloid β production)
[6] = transfected H4 cells stably expressing APP, approx. 16 h incubation, read-out: ACTIVITY (IC50, inhibition of amyloid β production)
[7] = transfected H4 cells stably expressing APP, approximately 16 hours incubation, read-out: ACTIVITY (IC50, inhibition of amyloid β production)
[8] = Homo sapiens, 16 h, transfected H4 cells expressing APP, approximately 16 hours incubation, read-out: ACTIVITY (IC50, inhibition of amyloid β production)

For `O=S(=O)(c1ccc(Cl)cc1)N(Cc1ccccc1OCCCN1CCCCC1)C1CCOCC1` [Example 271, 4-Chloro-N-{2-[3-(1-piperidinyl)propoxy]benzyl}-N-tetrahydro-2H-pyran-4-ylbenzenesulfonamide hydrochloride], the IC50 [1] was 25 to 50 nM.
For `CC(C)[S+]([O-])CCC[C@@H](C)N(c1cc(F)ccc1F)S(=O)(=O)c1ccc(Cl)cc1` (stereo partly shown) [Example 1179], the IC50 [2] was ≤ 25 nM.
`Cc1ccccc1N(Cc1ccccc1OCCCN1CCCCC1)S(=O)(=O)c1ccc(Cl)cc1` [Example 875, 4-chloro-N-(2-methylphenyl)-N-{2-[3-(1-piperidinyl)propoxy]benzyl}benzenesulfonamide hydrochloride] gave an IC50 [3] of 100 to 500 nM.
`O=S(=O)(c1ccc(Cl)cc1)N(Cc1ccccc1OCCC1CCCCN1Cc1cccc(F)c1F)c1cc(F)ccc1F` (stereo not shown) [Example 933, 4-chloro-N-(2-{2-[1-(2,3-difluorobenzyl)-2-piperidinyl]ethoxy}benzyl)-N-(2,5-difluorophenyl)benzenesulfonamide] was tested, and the IC50 [3] was > 500 nM.
For `CC(C)CNC(=O)OCc1cc(F)ccc1[C@@H](C)N(c1cc(F)ccc1F)S(=O)(=O)c1ccc(Cl)cc1` [Example 398, 2-((1R)-1-{[(4-chlorophenyl)sulfonyl]-2,5-difluoroanilino}ethyl)-5-fluorobenzyl isobutylcarbamate], the IC50 [4] was 50 to 100 nM.
`CN(CCCOc1ccccc1CN(c1cc(F)ccc1F)S(=O)(=O)c1ccc(Cl)cc1)C(=O)CCCCCN` [Example 366, 6-Amino-N-{3-[2-({[(4-chlorophenyl)sulfonyl]-2,5-difluoroanilino}methyl)phenoxy]propyl]-N-methylhexanamide Hydrochloride] gave an IC50 [1] of 50 to 100 nM.
For `CCSCCC[C@@H](C)N(c1cc(F)ccc1F)S(=O)(=O)c1ccc(Cl)cc1` [Example 1177, 4-chloro-N-[2,5-difluorophenyl]-N-[1(R)-methyl-(4-ethylthio)butyl]benzenesulfonamide], the IC50 [2] was ≤ 25 nM.
For `C[C@H](CCCS(=O)(=O)O)N(c1cc(Cl)ccc1F)S(=O)(=O)c1ccc(Cl)cc1` [Example 1192, (4R)-4-[N-[5-chloro-2-fluorophenyl][(4-chlorophenyl)sulfonyl]amino]pentylsulfonic acid], the IC50 [5] was 100 to 500 nM.
For “2-[2-((1R)-1-{[(4-chlorophenyl)sulfonyl]-2,5-difluoroanilino}ethyl)phenyl]ethyl 3,4-difluorobenzylcarbamate [Example 726]”, the IC50 [6] was 100 to 500 nM.
In the case of `CSC1CCCN(CCC[C@@H](C)N(c2cc(Cl)ccc2Cl)S(=O)(=O)c2ccc(Cl)cc2)C1` (stereo partly drawn) [Example 1153, 4-chloro-N-(2,5-dichlorophenyl)-N-[4-[(3-methylthio)-1-piperidinyl]-1(R)-methylbutyl]benzenesulfonamide], the IC50 [2] is reported as 100 to 500 nM.
“N-{2-[2-(1-{[(4-chlorophenyl)sulfonyl]-2,5-difluoroanilino}ethyl)phenoxy]ethyl}-N-ethyl-2-(2-thienyl)acetamide [Example 705]” was tested, and the IC50 [6] was 100 to 500 nM.
Work on `CC(c1ccccc1OCCCN(C)C(=O)c1ccccc1I)N(c1cc(F)ccc1F)S(=O)(=O)c1ccc(Cl)cc1` (stereo not shown) [Example 637] yielded an IC50 [6] of 100 to 500 nM.
In the case of `C[C@H](COC(=O)NCCCn1ccnc1)N(c1cc(Cl)ccc1Cl)S(=O)(=O)c1ccc(Cl)cc1` [Example 1240, 4-Chloro-N-(2,5-dichlorophenyl)-N-[2-[[N′-[3-(1H-imidazol-1-yl)propylamino]carbonyl]oxy]-(R)-1-methylethyl]benzenesulfonamide], the IC50 [2] is reported as ≤ 25 nM.
For “methyl 3-[2-((1R)-1-{[(4-chlorophenyl)sulfonyl]-2,5-difluoroanilino}ethyl)-5-fluorophenyl]propanoate [Example 1065]”, the IC50 [7] was > 500 nM.
“N-{3-[2-(1-{[(4-chlorophenyl)sulfonyl]-2,5-difluoroanilino}ethyl)phenoxy]propyl}-2,6-difluoro-N-methylbenzamide [Example 755]” showed an IC50 [6] of 100 to 500 nM.
Compound `C[C@H](CCCS(=O)(=O)N(CCCn1ccnc1)CC1CC1)N(c1cc(Cl)ccc1CO)S(=O)(=O)c1ccc(Cl)cc1` [Example 1236, 4-chloro-N-[5-chloro-2-(hydroxymethyl)phenyl]-N-[4-[N-(cyclopropylmethyl)-N-[3-(1H-imidazol-1-yl)-propyl]aminosulfonyl]-1(R)-methylbutyl]benzenesulfonamide] has an IC50 [5] of 100 to 500 nM.
Work on `C[C@H](c1ccc(F)cc1COCc1ccccn1)N(c1cc(F)ccc1F)S(=O)(=O)c1ccc(Cl)cc1` [Example 400, 4-chloro-N-(2,5-difluorophenyl)-N-((1R)-1-{4-fluoro-2-[(2-pyridinylmethoxy)methyl]phenyl}ethyl)benzenesulfonamide] yielded an IC50 [4] of 50 to 100 nM.
In the case of `C[C@H](CCCS(C)(=O)=O)N(c1cc(Cl)ccc1CO)S(=O)(=O)c1ccc(Cl)cc1` [Example 1225, 4-chloro-N-[5-chloro-2-(hydroxymethyl)phenyl]-N-[1(R)-methyl-(4-methylsulfonyl)butyl]benzenesulfonamide], the IC50 [2] is reported as ≤ 25 nM.
With `CCCC(C)N(Cc1ccccc1OCCCN1CCCCC1)S(=O)(=O)c1ccc(Cl)cc1` (stereo not shown) [Example 782, 4-chloro-N-(1-methylbutyl)-N-{2-[3-(1-piperidinyl)propoxy]benzyl}benzenesulfonamide hydrochloride] the IC50 [6] was 100 to 500 nM.
`CC(C)Oc1c(NCC[C@@H](C)N(c2cc(Cl)ccc2F)S(=O)(=O)c2ccc(Cl)cc2)c(=O)c1=O` [Example 1127, 4-chloro-N-(5-chloro-2-fluorophenyl)-N-[3-(2-isopropoxy-3,4-dioxo-1-cyclobutenyl)amine-1(R)-methylpropyl]benzenesulfonamide] showed an IC50 [2] of 50 to 100 nM.
For `C[C@H](CCN1CCCCC1CS(C)(=O)=O)N(c1cc(Cl)ccc1Cl)S(=O)(=O)c1ccc(Cl)cc1` (stereo partly drawn) [Example 1102, 4-chloro-N-(2,5-dichlorophenyl)-N-[3-[2-[(methylsulfonyl)methyl]-1-piperidinyl]-1(R)-methylpropyl]benzenesulfonamide], the IC50 [5] was ≤ 25 nM.
With `C[C@H](CCCS(=O)(=O)N1CCC1)N(c1cc(F)ccc1F)S(=O)(=O)c1ccc(Cl)cc1` [Example 1200, 4-chloro-N-[2,5-difluorophenyl]-N-[4-[(1-azetidinyl)sulfonyl]-1(R)-methylbutyl]benzenesulfonamide] the IC50 [5] was ≤ 25 nM.
Compound `Cc1cccc(C(=O)N2CCCCC2CCOc2ccccc2CN(c2cc(F)ccc2F)S(=O)(=O)c2ccc(Cl)cc2)c1` (stereo not shown) [Example 860, 4-chloro-N-(2,5-difluorophenyl)-N-(2-{2-[1-(3-methylbenzoyl)-2-piperidinyl]ethoxy}benzyl)benzenesulfonamide] has an IC50 [3] of 100 to 500 nM.
In the case of `C[C@H](CCCS(=O)(=O)N1CCOCC1)N(c1cc(Cl)ccc1Cl)S(=O)(=O)c1ccc(Cl)cc1` [Example 1209, 4-chloro-N-[2,5-dichlorophenyl]-N-[4-[(4-morpholinyl)sulfonyl]-1(R)-methylbutyl]benzenesulfonamide], the IC50 [5] is reported as ≤ 25 nM.
In the case of “S-methyl 2-[2-(1-{[(4-chlorophenyl)sulfonyl]-2,5-difluoroanilino}ethyl)phenoxy]ethyl(methyl)thiocarbamate [Example 983]”, the IC50 [7] is reported as > 500 nM.
“methyl [[2-((1R)-1-{[(4-chlorophenyl)sulfonyl]-2,5-difluoroanilino}ethyl)benzyl]- [Example 798]” was tested, and the IC50 [6] was 100 to 500 nM.
`C[C@H](c1ccc(F)cc1CCCC(=O)O)N(c1cc(F)ccc1F)S(=O)(=O)c1ccc(Cl)cc1` [Example 1067, 4-[2-((1R)-1-{[(4-chlorophenyl)sulfonyl]-2,5-difluoroanilino}ethyl)-5-fluorophenyl]butanoic acid] was tested, and the IC50 [7] was > 500 nM.
For `CC(C)NC(=O)OC[C@@H](C)N(c1cc(Cl)ccc1CO)S(=O)(=O)c1ccc(Cl)cc1` [Example 1286], the IC50 [8] was ≤ 25 nM.
With `C[C@H](C(=O)N(CCN)c1ccc([N+](=O)[O-])cn1)N(c1cc(Cl)ccc1F)S(=O)(=O)c1ccc(Cl)cc1` [Example 1354] the IC50 [8] was > 500 nM.
With `C[C@H](O)CO[Si](C)(C)C(C)(C)C` [Example 21] the IC50 (Table B, transfected H4 cells stably expressing APP, approximately 16 hours incubation, read-out: ACTIVITY (inhibitory concentration IC50, inhibition of amyloid β production)) was ≤ 25 nM.
In the case of `O=S(=O)(c1ccc(Cl)cc1)N(Cc1ccccc1OCCCNC1CC1)c1ccccc1` [Example 979, 4-chloro-N-{2-[3-(cyclopropylamino)propoxy]benzyl}-N-phenylbenzenesulfonamide hydrochloride], the IC50 [3] is reported as > 500 nM.
Work on `CCCN(CCC)C(=O)CCCc1cc(F)ccc1[C@@H](C)N(c1cc(F)ccc1F)S(=O)(=O)c1ccc(Cl)cc1` [Example 500, 4-[2-((1R)-1-{[(4-chlorophenyl)sulfonyl]-2,5-difluoroanilino}ethyl)-5-fluorophenyl]-N,N-dipropylbutanamide] yielded an IC50 [1] of 100 to 500 nM.
`COC(=O)C1SCCN1CC[C@@H](C)N(c1cc(Cl)ccc1Cl)S(=O)(=O)c1ccc(Cl)cc1` (stereo partly drawn) [Example 1119, 4-chloro-N-(2,5-dichlorophenyl)-N-[3-(2-methoxycarbonyl-3-thiazolidinyl)-1(R)-methylpropyl]benzenesulfonamide] gave an IC50 [5] of 25 to 50 nM.
With `O=S(=O)(c1ccc(Cl)cc1)N(Cc1c(OCCCN2CCCCC2)ccc2ccccc12)c1cc(F)ccc1F` [Example 1025, 4-chloro-N-(2,5-difluorophenyl)-N-(2-{2-[3-(1-piperidinyl)propoxy]-1-naphthyl}methyl)benzenesulfonamide hydrochloride] the IC50 [7] was > 500 nM.
